Read-outs that look alike come from different tables or passages of the source.
Columns and labels:
[1] = test system: H460 cells; assay: DNA fiber analysis of replication fork dynamics; type: cell-based, human
Protocol: Analysis of DNA replication intermediates was performed as previously described with minor modifications ([11], [12]). H460 cells were seeded in 6-well plates at a density of 2 × 10^5 cells. […] After harvesting, the cells were resuspended in PBS at a concentration of 1,000,000 cells/ml, and 2 µl of the cell suspension was mixed with 8 µl of lysis buffer (200 mM Tris-HCl pH 7.5, 50 mM EDTA, 0.5% SDS) on a Superfrost Plus microscope slide (Fisher Scientific). After 6 min of incubation, the slides were tilted at a 45-degree angle to allow cell lysates to slowly run down the slide. After air-drying, the slides were fixed in methanol:acetic acid (3:1) and stored at 4°C. DNA fibers were denatured with 2.5N HCl for 1 h, washed with PBS, and blocked with 5% BSA in PBS-T (PBS + 0.1% Tween-20) for 1 h. […] Excess antibodies were removed by washing with PBS-T 3 times. After air-drying, the slides were mounted onto a coverslip with mounting medium. Fiber tracts were imaged with a Nikon epifluorescence microscope using a 40× oil immersion objective, and 100 fibers for each group were analyzed in ImageJ where the ratios of CldU : IdU were compared using pixel length. Data were analyzed by ANOVA with Bonferroni test for multiple comparisons.
(A) Schematic depiction of experimental design. DNA was pulse-labeled with IdU for 20 min. After IdU removal, replication forks were stalled by the addition of HU or left to replicate with vehicle treatment. HU was removed, and replication was labeled with CldU. Following CldU, cells were treated with the DDRi or vehicle. […] Data presented are combined from three individual experiments (100 fibers analyzed per experiment; 300 fibers total). Red bar indicates the median value of CldU/IdU.

[2] = Chemical stability in lead formulation; type: physicochemical; conditions: for t90: 10 mg/ml in lead formulation; for predicted time stable: lead formulation; for fourteen-day stability: final formulation
Protocol: With favorable potency, cellular activity, plasma stability, and a clear deficit in PK, we initiated a series of studies to assess and optimize a formulation of 329 for in vivo bioavailability. Here, 329 solubility was assessed in a series of additives, excipients, and co-solvents to identify initial favorable vehicles ( Table 2 ). […] A series of different formulations were assessed. The final formulation consisted of polysorbate 80, N-methyl-2-pyrrolidone (NMP), propylene glycol, and PEG 400 (+1.1 mol. eq. HCl added as 12 M HCl), and 329 was soluble up to 20 mg/ml, and 10-fold dilution in PBS was well dispersed with minimal precipitation.
Figure 7 The 329 in vivo analysis. (A) Stability analysis. Compound stability was assessed over a 14-day time period at varying temperatures as indicated. (B) Pharmacokinetic analysis. Time course of drug plasma concentration over 24 h following drug administration as indicated in legend.

[3] = Pharmacokinetics in mice (plasma, HPLC-MS/MS); type: in vivo; conditions: for AUC(0-inf): read-out: AUC 0-inf_obs; for k el: read-out: Lambda_z (converted); for MRT inf: read-out: MRT 0-inf_obs
Protocol: A method to quantify 329 from plasma has been developed using an internal standard, liquid–liquid extraction, and HPLC-MS/MS. Mouse plasma samples were prepared from treated mice at the indicated times frozen at -80°C until analysis. Plasma samples were thawed (20 µl) and transferred to polypropylene tubes, and the internal standard is added (20 µl of 0.1 ng/µl). Samples were diluted in 0.1 M phosphate buffer (pH = 7.4) and equal volume of methyl tertiary butyl ether. The samples were mixed and centrifuged at 12,000×g for 5 min, and the supernatant was transferred to a clean polypropylene tube. The solvent was evaporated to dryness, brought up in mobile phase analyzed by HPLC-MS/MS (ABSciex 4000). The mobile phase is delivered via gradient using acetonitrile and 0.1% formic acid on an Agilent Zorbax 300SB-C8 150 × 4.6 mm, 5-µm column. The mass spectrometer utilized an electrospray ionization probe run in positive mode. Multiple reaction monitoring was employed with Q1/Q3 (m/z) transitions for 329 at 718.2/128.1 and 687.3/128.1 for the internal standard. The lower limit of quantification is 0.1 ng/ml using 20 µl of plasma.
PK parameters were assessed in a series of studies in immunocompetent mice both IV and IP ( Figure 7B and Table 4 ). […] The half-life was also well within acceptable range (9 h).

[4] = test system: A549 adenocarcinoma and H460 large cell carcinoma; design: method as in doi:10.1101/2020.11.30.404640; conditions: both models, differing dosing regimens, DMSO/Tween; cited from earlier work
[5] = IP, DMSO vehicle, 200 mg/kg, mice
[6] = IP, NMP vehicle, 20 mg/kg, mice
[7] = IP, NMP vehicle, 200 mg/kg, mice
[8] = mouse, plasma, ip, 20 mg/kg, IP, NMP vehicle, 20 mg/kg, mice
[9] = mouse, plasma, ip, 20 mg/kg, NMP vehicle, mice
[10] = mouse, plasma, ip, 200 mg/kg, DMSO vehicle, mice
[11] = mouse, plasma, ip, 200 mg/kg, IP, DMSO vehicle, 200 mg/kg, mice
[12] = mouse, plasma, ip, 200 mg/kg, IP, NMP vehicle, 200 mg/kg, mice
[13] = mouse, plasma, ip, 200 mg/kg, NMP vehicle, mice
[14] = mouse, plasma, iv, 2 mg/kg, IV, NMP vehicle, 2 mg/kg, mice
[15] = mouse, plasma, iv, 2 mg/kg, NMP vehicle, mice

SMILES: CCOc1ccc2cc(C3CC(c4ccc(I)cc4)=NN3C(=O)CCCC(=O)NCCCN3CCOCC3)c(Cl)nc2c1 (centres unmarked) [compound 329]
- CldU/IdU signal after HU ([1]; H460, HU 2.5 mM then 329 50 µM or VE-822 2 µM): significant decrease in CldU/IdU signal
- CldU/IdU, inhibitor alone ([1]; H460, without HU, 329 50 µM, VE-822 2 µM, 2 h): minimal effects
- t90 ([2]; 5°C (extrapolated)): 2100 days
- predicted time stable ([2]; 5°C, extrapolated): over 5 years
- t90 ([2]; 25°C): 140 days
- t90 ([2]; 40°C): 26 days
- t90 ([2]; 60°C): 3.2 days
- fourteen-day stability ([2]; extended incubations at 60°C): degradation was observed
- predicted time stable ([2]; room temperature): over 3 months
- fourteen-day stability ([2]; up to 40°C): very stable
- AUC and Cmax compared to 551 ([3]; DMSO/Tween formulation, data not shown): significant reduction in AUC and Cmax
- AUMC 0-inf_obs [3, 5]: 95023.52 ng/ml*h^2
- CI/F_obs [3, 5]: 0.0902 (mg/kg)/(ng/ml)/h
- Vz/F_obs [3, 5]: 4.015 (mg/kg)/(ng/ml)
- AUMC 0-inf_obs [3, 6]: 98489.24 ng/ml*h^2
- CI/F_obs [3, 6]: 0.0012 (mg/kg)/(ng/ml)/h
- Vz/F_obs [3, 6]: 0.011 (mg/kg)/(ng/ml)
- AUMC 0-inf_obs [3, 7]: 947545.56 ng/ml*h^2
- Vz/F_obs [3, 7]: 0.172 (mg/kg)/(ng/ml)
- AUMC 0-inf_obs ([3]; IV, NMP vehicle, 2 mg/kg, mice): 1897.83 ng/ml*h^2
- CI/F_obs ([3]; IV, NMP vehicle, 2 mg/kg, mice): 0.0014 (mg/kg)/(ng/ml)/h
- Vz/F_obs ([3]; IV, NMP vehicle, 2 mg/kg, mice): 0.007 (mg/kg)/(ng/ml)
- bioavailability ([3]; mouse, plasma, intraperitoneal, IP at 20 mg/kg versus IV dosing, read-out: absolute bioavailability): 84%
- AUC(0-inf) [3, 8]: 16500 ng·h/mL
- k el [3, 8]: 3.06e-05 s⁻¹
- MRT inf [3, 8]: 5.98 h
- half-life ([3]; mouse, plasma, ip, 20 mg/kg, IP, NMP vehicle, 20 mg/kg, mice, read-out: t1/2 (converted)): 6.3 h
- AUC(0-t) [3, 9]: 16400 ng·h/mL
- Cmax [3, 9]: 2510 ng/mL
- Tmax [3, 9]: 2 h
- AUC(0-t) [3, 10]: 968 ng·h/mL
- Cmax [3, 10]: 92.1 ng/mL
- Tmax [3, 10]: 0.25 h
- AUC(0-inf) [3, 11]: 2220 ng·h/mL
- k el [3, 11]: 5.56e-06 s⁻¹
- MRT inf [3, 11]: 42.8 h
- half-life ([3]; mouse, plasma, ip, 200 mg/kg, IP, DMSO vehicle, 200 mg/kg, mice, read-out: t1/2 (converted)): 30.9 h
- AUC(0-inf) [3, 12]: 64300 ng·h/mL
- k el [3, 12]: 1.94e-05 s⁻¹
- MRT inf [3, 12]: 14.7 h
- half-life ([3]; mouse, plasma, ip, 200 mg/kg, IP, NMP vehicle, 200 mg/kg, mice, read-out: t1/2 (converted)): 9.31 h
- half-life ([3]; mouse, plasma, ip, 200 mg/kg, IP, new formulation, 200 mg/kg, read-out: half-life (converted)): 9 h
- AUC(0-t) [3, 13]: 52000 ng·h/mL
- Cmax [3, 13]: 2910 ng/mL
- Tmax [3, 13]: 8 h
- AUC(0-inf) [3, 14]: 1410 ng·h/mL
- k el [3, 14]: 5.83e-05 s⁻¹
- MRT inf [3, 14]: 1.35 h
- half-life ([3]; mouse, plasma, iv, 2 mg/kg, IV, NMP vehicle, 2 mg/kg, mice, read-out: t1/2 (converted)): 3.28 h
- AUC(0-t) [3, 15]: 1400 ng·h/mL
- Cmax [3, 15]: 841 ng/mL
- Tmax [3, 15]: 0.5 h
- single-agent anticancer activity in vivo [4]: only modest single-agent anticancer activity
